By EC50 is commonly meant the concentration that produces a half-maximal response.

For the test, the target named is T1, adenosine A1 receptor (Homo sapiens, UniProt P30542).
T1 construct: expressed in transfected cells; cells use mitochondrial aequorin
T1 sequence (P30542 1-326): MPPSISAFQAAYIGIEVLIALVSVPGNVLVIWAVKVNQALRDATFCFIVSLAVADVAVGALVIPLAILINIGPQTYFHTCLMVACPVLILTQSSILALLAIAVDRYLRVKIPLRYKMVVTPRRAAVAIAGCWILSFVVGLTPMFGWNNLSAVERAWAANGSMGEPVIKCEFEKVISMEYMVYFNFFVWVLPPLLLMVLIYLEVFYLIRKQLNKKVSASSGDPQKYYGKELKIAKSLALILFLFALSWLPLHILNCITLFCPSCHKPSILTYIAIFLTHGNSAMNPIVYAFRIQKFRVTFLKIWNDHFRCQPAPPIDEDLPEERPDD
The test can be described thus: Adenosine A1 receptor agonistic activity, aequorin calcium luminescence in A1-overexpressing cell line. Type of test: cell-based. Particulars: for activation at 10 µM: compound concentration 10 μM; for activation at 10 µM / activation at 50 µM: read-out: agonistic effect on A1 receptor, response relative to adenosine as 100%; for activation at 50 µM: compound concentration 50 μM. An excerpt: The intracellular endoplasmic reticulum has the function of storing calcium ions and releasing them when necessary. It is responsible for managing and maintaining the overall physiological activities of the human body, such as contracting muscles and promoting hormone secretion by releasing calcium ions. This mechanism has been applied as a universal and accurate method to study the activity of G protein-coupled receptors (GPCRs), and the method of measuring calcium ions, which are the final measurement target, has been developed into various methods including fluorescent substances. The present inventors tried to use chemical luminescence through aequorin to evaluate the agonistic efficacy of the compounds subject to development. To this end, a cell line overexpressing an adenosine receptor (adenosine receptor subtype 1, A1), which targets calcium ions released from the intracellular endoplasmic reticulum, was used, and the concentration of calcium ions released instantaneously was measured using a cell function screening system based on the luminescence phenomenon through mitochondrial aequorin.
Cells into which an A1 receptor gene was inserted through transformation were washed with 10 ml of PBS after 48 hours of culture, and then the cells were isolated and centrifuged at 1,000×g for 5 minutes. The precipitated cells were treated with a basic buffer solution (Dulbecco's Modified Eagle's Medium (DMEM)/HAM's F12 without phenol red, with L-glutamate, 15 mM hydroxyethyl piperazine ethane sulfonic acid (HEPES), pH 7.0, 0.1% bovine serum albumin (BSA)), coelenterazine h was added to a concentration of 2×10^6 cells/ml, and then light was blocked. The cells were allowed to react with coelenterazine h using a rotator at room temperature. After four hours of reaction, the reaction mixture was diluted 10 times with a basic buffer solution to adjust the concentration to 2×10^5 cells/ml and allowed to stand for 60 minutes under the same conditions as before.
To confirm the agonistic activity of the novel compounds of the present invention, the previously prepared cells were plated in a 96-well black plate (Corning 3915) containing adenosine ([…]-4.57 nM) at 50 µl/well (5,000 cells/well), and then the resulting signal value was measured. To confirm the calcium signal changing activity (agonistic activity) of the compounds subject to development, the prepared cells were plated in a 96-well plate containing 50 μl/well of the compound sample at 50 μl/well and allowed to react for 30 minutes. Thereafter, 50 μl/well of adenosine (3 μM) was injected to confirm the reaction. The light emitted due to cell activity was measured and recorded using a Mithras 960 MultiLabel Reader. The measured value (area under the curve (AUC) integrated signal) was expressed in relative light units (RLU). To ensure the accuracy of the experimental data, the experiment was performed at at least two concentrations ([…] and 50 μM) with three samples of the same compound, and EC50 values calculated when necessary were compared and analyzed with the values obtained through at least three experiments.
As a result, the results shown in Table 1 below and FIG. 5 were obtained. Each value was obtained by assuming the response of […] adenosine as 100% and converting the ratio into percentage. The greater the value, the greater the agonistic effect.

Take `CCNc1nc(NCc2ccco2)c2ccccc2n1` [AR-001, N^2-ethyl-N^4-(furan-2-ylmethyl)quinazoline-2,4-diamine]: the activation at 10 µM turned out to be 23.7% and the activation at 50 µM was determined as 246%.
For `CN(C)c1nc(NCc2ccco2)nc2ccccc12` [AR-002, N^2-(furan-2-ylmethyl)-N^4,N^4-dimethylquinazoline-2,4-diamine] the same measures were -1.5% and 1.3%.
For `CC(Nc1nc(NC2CC2)nc2ccccc12)c1ccccc1` (stereo not drawn) [AR-003, N^2-cyclopropyl-N^4-(1-phenylethyl)quinazoline-2,4-diamine] the same measures were -1.1% and 3.9%.
For `c1ccc2c(N3CCCC3)nc(NCc3ccc4c(c3)OCO4)nc2c1` [AR-004, N-(benzo[d][1,3]dioxol-5-ylmethyl)-4-(pyrrolidin-1-yl)quinazolin-2-amine] the same measures were -0.7% and -0.8%.
Turning to `c1coc(CNc2nc(NCc3ccco3)c3ccccc3n2)c1` [AR-005, N^2,N^4-bis(furan-2-ylmethyl)quinazoline-2,4-diamine], the activation at 10 µM stood at 0.2% and the activation at 50 µM was found to be 251%.
With `c1coc(CNc2nc(NC3CC3)nc3ccccc23)c1` [AR-006, N^2-cyclopropyl-N^4-(furan-2-ylmethyl)quinazoline-2,4-diamine], the activation at 10 µM amounted to 170% and the activation at 50 µM is 289%. Also, for the setting “dose-response, FIG. 5”, the EC50 came to 6.95 µM.
On to `c1coc(CNc2nc(NCc3ccc4c(c3)OCO4)nc3ccccc23)c1` [AR-007, N^2-(benzo[d][1,3]dioxol-5-ylmethyl)-N^4-(furan-2-ylmethyl)quinazoline-2,4-diamine], for which the activation at 10 µM is -1.1% and the activation at 50 µM was 12%.
For the compound `CCNc1nc(N(C)C)c2ccccc2n1` [AR-008, N^2-ethyl-N^4,N^4-dimethylquinazoline-2,4-diamine], the activation at 10 µM stood at 0.4% and the activation at 50 µM is 2.6%.
For `CN(C)c1nc(NC2CC2)nc2ccccc12` [AR-009, N^2-cyclopropyl-N^4,N^4-dimethylquinazoline-2,4-diamine] the same measures were -1.2% and 14.6%.
For `CN(C)c1nc(NCc2ccc3c(c2)OCO3)nc2ccccc12` [AR-010, N^2-(benzo[d][1,3]dioxol-5-ylmethyl)-N^4,N^4-dimethylquinazoline-2,4-diamine] the same measures were 2.1% and 240%.
For `CCNc1nc(NC(C)c2ccccc2)c2ccccc2n1` (stereo not drawn) [AR-011, N^2-ethyl-N^4-(1-phenylethyl)quinazoline-2,4-diamine] the same measures were -0.4% and 42.8%.
As to `CC(Nc1nc(NCc2ccco2)nc2ccccc12)c1ccccc1` (stereo not drawn) [AR-012, N^2-(furan-2-ylmethyl)-N^4-(1-phenylethyl)quinazoline-2,4-diamine], the activation at 10 µM was -0.6% and the activation at 50 µM is 6.4%.
For `CC(Nc1nc(NCc2ccc3c(c2)OCO3)nc2ccccc12)c1ccccc1` (stereo not drawn) [AR-013, N^2-(benzo[d][1,3]dioxol-5-ylmethyl)-N^4-(1-phenylethyl)quinazoline-2,4-diamine] the same measures were 0.8% and -0.4%.
For `CCNc1nc(N2CCCC2)c2ccccc2n1` [AR-014, N-ethyl-4-(pyrrolidin-1-yl)quinazolin-2-amine], the activation at 10 µM was -0.9% and the activation at 50 µM amounted to 25.1%.
For `c1coc(CNc2nc(N3CCCC3)c3ccccc3n2)c1` [AR-015, N-(furan-2-ylmethyl)-4-(pyrrolidin-1-yl)quinazolin-2-amine] the same measures were 28.6% and 219%.
For `c1ccc2c(N3CCCC3)nc(NC3CC3)nc2c1` [AR-016, N-cyclopropyl-4-(pyrrolidin-1-yl)quinazolin-2-amine] the same measures were 3.7% and 101%.
For `COc1cc2nc(NC3CC3)nc(N3CCCC3)c2cc1OC` [AR-017, N-cyclopropyl-6,7-dimethoxy-4-(pyrrolidin-1-yl)quinazolin-2-amine] the same measures were 0.6% and 0.9%.
Take `CCNc1nc(NCc2ccco2)c2cc(OC)c(OC)cc2n1` [AR-018, N^2-ethyl-N^4-(furan-2-ylmethyl)-6,7-dimethoxyquinazoline-2,4-diamine]: the activation at 10 µM was determined as 1% and the activation at 50 µM came out at 0%.
For `COc1cc2nc(NCc3ccco3)nc(N(C)C)c2cc1OC` [AR-019, N^2-(furan-2-ylmethyl)-6,7-dimethoxy-N^4,N^4-dimethylquinazoline-2,4-diamine] the same measures were -0.3% and 0%.
`CCNc1nc(N2CCCC2)c2cc(OC)c(OC)cc2n1` [AR-020, N-ethyl-6,7-dimethoxy-4-(pyrrolidin-1-yl)quinazolin-2-amine]: the activation at 10 µM worked out at 0.3% and the activation at 50 µM was -0.7%.
For `c1ccc2c(N3CCCC3)nc(N3CCCC3)nc2c1` [AR-021, 2,4-di(pyrrolidin-1-yl)quinazoline] the same measures were 1.8% and 0.1%.
For `CN(C)c1nc(N2CCCC2)c2ccccc2n1` [AR-022, N,N-dimethyl-4-(pyrrolidin-1-yl)quinazolin-2-amine] the same measures were -0.5% and 0%.
On to `CC(Nc1nc(N2CCCC2)c2ccccc2n1)c1ccccc1` (stereo not drawn) [AR-023, N-(1-phenylethyl)-4-(pyrrolidin-1-yl)quinazolin-2-amine], for which the activation at 10 µM is 1.7% and the activation at 50 µM turned out to be 47.8%.
For `O=C(NCCNc1nc(N2CCCC2)c2ccccc2n1)c1ccc(O)c(O)c1` [AR-024, 3,4-Dihydroxy-N-(2-((4-(pyrrolidin-1-yl)quinazolin-2-yl)amino)ethyl)benzamide] the same measures were -0.7% and 0.1%.
For `Oc1cc2nc(NC3CC3)nc(N3CCCC3)c2cc1O` [AR-025, 2-(Cyclopropylamino)-4-(pyrrolidin-1-yl)quinazoline-6,7-diol] the same measures were -1.6% and 0.4%.
For `CN(C)c1nc(NCc2ccco2)nc2cc(O)c(O)cc12` [AR-026, 4-(Dimethylamino)-2-((furan-2-ylmethyl)amino)quinazoline-6,7-diol] the same measures were -0.6% and 0%.
Turning to `CCNc1nc(N2CCCC2)c2cc(O)c(O)cc2n1` [AR-027, 2-(Ethylamino)-4-(pyrrolidin-1-yl)quinazoline-6,7-diol], the activation at 10 µM was determined as 0.2% and the activation at 50 µM worked out at 1.1%.
On to `CCNc1nc(NCc2ccco2)c2cc(O)c(O)cc2n1` [AR-028, 2-(Ethylamino)-4-((furan-2-ylmethyl)amino)quinazoline-6,7-diol], for which the activation at 10 µM was -0.3% and the activation at 50 µM is -1.1%.
